Holding throughout (assay): DTP human tumour cell line panel, 48 h
Assay [1] concerns COLO 205 colon.
For assay [2], the system named is HCC-2998 colon.
Assay [3] concerns HCT-15 colon.
The test system of assay [4] is MOLT-4 leukemia.
Assay [5] deals with NCI-H23 lung.
Assay [6] deals with OVCAR-5 ovarian.
Assay [7] deals with PC-3 prostate.
In assay [8] the test system is SK-MEL-5 melanoma.
Assay [9] relates to SNB-75 CNS.
For assay [10], the system named is T-47D breast.

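Each compound was tested at five concentrations against cells in 96-well plates for 48 hours. GI50 = concentration required for 50% inhibition of growth. At the TGI there is no net growth.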

Turning to `CCCCCCN1C(=O)/C(=c2\sc3n(c2=O)C2C(NN=3)N(CC)C(=O)N2CC)c2ccccc21` (centres undefined), the GI50 in [1] was 2.21 µM; in assay [2], 5.83 µM; in [3], 1.62 µM; in assay [4], 3.96 µM; in assay [5], 2.05 µM; in assay [6], 2.03 µM. The GI50 was 2.48 µM in [7], 3.48 µM in assay [8], 0.762 µM in [9] and 1.66 µM in assay [10]. Also, the TGI in assay [1] is 38.3 µM; in assay [2], over 50 µM; in [3], over 50 µM; in assay [4], over 50 µM; in assay [5], over 50 µM; in assay [6] it was over 50 µM. In addition, the total growth inhibition concentration (TGI) in assay [7] was over 50 µM; in assay [8], over 50 µM; in assay [9], 2.31 µM; in assay [10], over 50 µM.
As for `CCOC(=O)c1cc2c(cc1Cl)SC(N(c1ccc(F)cc1)S(=O)(=O)c1ccc(OC)cc1)=NS2(=O)=O`, the GI50 in assay [1] is 12.5 µM; in [2] it was 18.2 µM; in assay [3], 14.8 µM; in assay [4], 15.6 µM; in assay [5] it was 18.5 µM; in [6], 32.4 µM. The GI50 in assay [7] was 11.3 µM; in assay [8], 13.6 µM; in [9], 18.3 µM; in assay [10] it was 4.8 µM. Further, the TGI was found to be 27.6 µM in assay [1]; 35.2 µM in assay [2]; 27.9 µM in assay [3]; 37.9 µM in assay [4]; 44 µM in assay [5]; 71 µM in assay [6]. For the same molecule, the TGI in assay [7] turned out to be 25.5 µM; in assay [8], 26.5 µM; in assay [9] it was 47.4 µM; in [10], 21.9 µM.
Take `N#Cc1nc(-c2cccc(Br)c2)cc(-c2ccc(Nc3nc(N4CCCCC4)nc(N4CCCCC4)n3)cc2)c1N`: the GI50 in assay [1] was 1.99 µM; in assay [2] it was 2.31 µM; in [3] it was 1.72 µM; in [4] it was 1.1 µM; in [5], 2.39 µM; in assay [6], 2.06 µM. Besides, the GI50 in assay [7] was 1.94 µM; in assay [8] it was 1.76 µM; in assay [9], 1.36 µM; in assay [10], 1.3 µM. The TGI was 4.64 µM in [1]; 6.62 µM in [2]; 5.53 µM in assay [3]; over 100 µM in [4]; 8.33 µM in [5]; 4.7 µM in assay [6]. The TGI in assay [7] worked out at 7.11 µM; in assay [8], 3.18 µM; in [9], 3.73 µM; in assay [10] it was 4.08 µM.
Regarding `N#Cc1c(NC(=O)c2cccs2)[n+]([O-])c2ccccc2[n+]1[O-]`, the GI50 in assay [1] is over 100 µM; in assay [2], over 100 µM; in [3] it was 64.1 µM; in [4], over 100 µM; in assay [5], over 100 µM; in assay [6], over 100 µM. The GI50 in assay [7] is 64.9 µM; in assay [8] it was 39.9 µM; in assay [9], 49.5 µM; in assay [10], 89.3 µM. Moreover, the total growth inhibition concentration (TGI) in [1], in [2], in [3], in [4], in assay [5] and in [6] was over 100 µM each time. The TGI in assay [7], in assay [8], in assay [9] and in [10] was over 100 µM each time.
On to `C[C@]12CC[C@H]3[C@@H](CCC4=CC(=O)CC[C@@H]43)[C@@H]1CC[C@@H]2OC1(O)C(=O)c2ccccc2C1=O`, for which the TGI in assay [1] was 53 µM; in assay [2], over 100 µM; in assay [3] it was over 100 µM; in assay [4], 92.8 µM; in [5], 62.5 µM; in assay [6] it was over 100 µM. Also, the TGI in [7] is over 100 µM; in assay [8], 35 µM; in assay [9], over 100 µM; in assay [10] it was over 100 µM.
Take `Cc1cccc2c3c(sc12)C(c1ccc(Cl)cc1)C(C#N)=C(/N=C/c1ccc(Cl)cc1)O3` (centres undefined): the GI50 in assay [1] is 0.456 µM; in assay [2], 1.04 µM; in [3], 0.392 µM; in assay [4] it was 0.517 µM; in assay [5], 0.446 µM; in [6], 0.558 µM. For the same molecule, the GI50 was 0.392 µM in assay [7], 0.47 µM in assay [8], 0.186 µM in [9] and 0.625 µM in [10]. Moreover, the total growth inhibition concentration (TGI) in assay [2] was 11.2 µM; in assay [3], over 100 µM; in [4], over 100 µM; in [5], 14.2 µM; in [6], over 100 µM; in assay [7], over 100 µM. The TGI in [8] is over 100 µM; in [9], 0.748 µM; in assay [10] it was over 100 µM.
`S=C(Nc1ccccc1)c1ccccn1`: the GI50 in assay [1] is 9.34 µM; in assay [2], over 100 µM; in assay [3] it was 40.3 µM; in assay [4], 42.1 µM; in assay [5], 75 µM; in assay [6] it was over 100 µM. Besides, the GI50 in assay [7] is 54.7 µM; in assay [8], 69.2 µM; in assay [9] it was 54.5 µM; in [10] it was over 100 µM. Further, the TGI in assay [1], in assay [2], in [3], in assay [4], in assay [5] and in assay [6] was over 100 µM in each case. Moreover, the TGI in assay [7], in assay [8], in assay [9] and in assay [10] was over 100 µM throughout.
With `C#Cc1cccc(NC(=O)Nc2ccc(NC(=O)CCl)cc2)c1`, the GI50 in assay [1] was 20.5 µM; in [2], 52.5 µM; in [3], 15.4 µM; in assay [4], 9.6 µM; in assay [5], 15.4 µM; in assay [6], 14.3 µM. The GI50 is 17.1 µM in [7], 15.1 µM in assay [8], 8.39 µM in assay [9] and 15.9 µM in assay [10]. The TGI in [1] was 60.3 µM; in assay [2] it was over 82.5 µM; in assay [3], 36.3 µM; in assay [4], 33.2 µM; in [5], 36 µM; in assay [6], 28.2 µM. The TGI in assay [7] was 74.5 µM; in [8], 28.7 µM; in assay [9], 19.1 µM; in assay [10], 69.8 µM.
